Reference: patent publication US20180353462A1, “[…] AGENTS […] FLAVONOID DERIVATIVES TARGETING KINASES, SIRTUINS AND ONCOGENIC AGENTS FOR THE TREATMENT OF CANCERS” (priority 2015, published 2018)

Target: T1, PDGFRa (Homo sapiens, UniProt P16234)
T1 construct: catalytic domain constructs for large multi-domain kinases; T7 phage fusion (most assays) or DNA tag for qPCR (HEK-293-made kinases); made in house
Assay: Kinase competition binding assay, PDGFRa
Conditions: Table 1 kinase panel
Description: Cannabis flavonoids and their analogs were subjected to kinase inhibition assay. The compounds were first screened at a single concentration of 10 μM in the primary assay. […]. To determine the kd or IC50 values, competition binding assays were established, authenticated and executed as described previously. Fabian et al., “A Small Molecule-Kinase Interaction Map For Clinical Kinase Inhibitors.”, Nat Biotechnol, 23(3):329-36, Epub (2005). See also, Karaman et al., “A Quantitative Analysis Of Kinase Inhibitor Selectivity”, Nat. Biotechnol. […] For most assays, kinases were fused to T7 phage strains (Fabian, supra) and for the other assays, kinases were produced in HEK-293 cells after which they were tagged with DNA for quantitative PCR detection. In general, full-length constructs were used for small, single domain kinases, and catalytic domain constructs for large multi-domain kinases. The binding assays utilized streptavidin-coated magnetic beads treated with biotinylated small molecule ligands for 30 minutes at room temperature which generated affinity resins for the kinase assays. The liganded beads were blocked with excess biotin and washed with blocking buffer (SeaBlock (Pierce), 1% BSA, 0.05% Tween 20, 1 mM DTT) to remove unbound ligand and to reduce non-specific phage binding. […] Test compounds were prepared as 40× stocks in 100% DMSO and diluted directly into the assay (Final DMSO concentration=2.5%). All reactions were performed in polypropylene 384-well plates in a final volume of 0.04 ml. […] The beads were then re-suspended in elution buffer (1×PBS, 0.05% Tween 20, 0.5 μM non-biotinylated affinity ligand) and incubated at room temperature with shaking for 30 minutes. The kinase concentration in the eluates was measured by quantitative PCR. An illustration of the kinase interaction process is presented below. Kd/IC50 values were determined using a standard dose response curve using the hill equation. Curves were fitted using a non-linear least square fit with the Levenberg-Marquardt algorithm. […]

T1 sequence (P16234 593-954 limits assumed): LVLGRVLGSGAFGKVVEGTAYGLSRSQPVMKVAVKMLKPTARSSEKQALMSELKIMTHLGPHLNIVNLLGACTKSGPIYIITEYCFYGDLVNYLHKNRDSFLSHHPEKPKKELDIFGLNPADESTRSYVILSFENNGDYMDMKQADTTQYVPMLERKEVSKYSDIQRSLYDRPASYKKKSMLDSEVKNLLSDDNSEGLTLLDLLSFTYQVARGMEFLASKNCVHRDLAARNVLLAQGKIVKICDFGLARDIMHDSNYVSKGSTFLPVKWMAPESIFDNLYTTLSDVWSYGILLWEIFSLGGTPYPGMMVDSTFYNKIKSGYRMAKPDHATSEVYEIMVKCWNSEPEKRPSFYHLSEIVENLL

SMILES	IC50 [nM]
COc1cc(-c2cc(=O)c3c(O)c(CC=C(C)C)c(O)cc3o2)ccc1O [FBL-03B]	982
COc1cc(-c2cc(=O)c3c(O)cc(O)c(CC=C(C)C)c3o2)ccc1O [FBL-03G]	5920
COc1ccc(-c2cc(=O)c3c(O)c(C/C=C(\C)CCC=C(C)C)c(O)cc3o2)cc1OC [FBL-03D]	> 30000

Target: T2, SIRT-5 (Homo sapiens, UniProt Q9NXA8)
T2 sequence (Q9NXA8 37-310): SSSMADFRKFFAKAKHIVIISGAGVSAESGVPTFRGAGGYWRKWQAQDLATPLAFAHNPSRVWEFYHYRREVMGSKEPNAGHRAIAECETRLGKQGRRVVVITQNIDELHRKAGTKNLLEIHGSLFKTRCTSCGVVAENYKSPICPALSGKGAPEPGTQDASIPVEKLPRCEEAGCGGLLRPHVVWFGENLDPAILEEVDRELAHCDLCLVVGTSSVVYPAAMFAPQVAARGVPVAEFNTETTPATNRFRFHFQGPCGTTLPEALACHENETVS
Assay: Inhibition of sirtuins, SIRT-5
Type: biochemical
Conditions: Table 3 SIRT
Excerpt: Inhibition of Sirtuins, Matrix Metalloproteinase, Bromodomains was Also Confirmed Using Standard Protocols and the Results are Present in Table 2.

SMILES	IC50 [µM]
COc1cc(-c2cc(=O)c3c(O)cc(O)c(C/C=C(\C)CCC=C(C)C)c3o2)ccc1O [FBL-03C]	132
COc1cc(-c2cc(=O)c3c(O)c(CC=C(C)C)c(O)cc3o2)ccc1O [FBL-03B]	104
COc1cc(-c2cc(=O)c3c(O)cc(O)c(CC=C(C)C)c3o2)ccc1O [FBL-03G]	974
COc1cc(-c2cc(=O)c3c(O)c(C/C=C(\C)CCC=C(C)C)c(O)cc3o2)ccc1O [FBL-03A]	523

Target: T3, PIP5K1A (Homo sapiens, UniProt Q99755)
T3 construct: T7 phage fusion (most assays) or DNA tag for qPCR (HEK-293-made kinases); made in house
Assay: Kinase competition binding assay, PIP5K1A
Conditions: Table 1 kinase panel
Description: (§1) Cannabis flavonoids and their analogs were subjected to kinase inhibition assay. The compounds were first screened at a single concentration of 10 μM in the primary assay. […]. To determine the kd or IC50 values, competition binding assays were established, authenticated and executed as described previously. Fabian et al., “A Small Molecule-Kinase Interaction Map For Clinical Kinase Inhibitors.”, Nat Biotechnol, 23(3):329-36, Epub (2005). See also, Karaman et al., “A Quantitative Analysis Of Kinase Inhibitor Selectivity”, Nat. Biotechnol. […] For most assays, kinases were fused to T7 phage strains (Fabian, supra) and for the other assays, kinases were produced in HEK-293 cells after which they were tagged with DNA for quantitative PCR detection. In general, full-length constructs were used for small, single domain kinases, and catalytic domain constructs for large multi-domain kinases. The binding assays utilized streptavidin-coated magnetic beads treated with biotinylated small molecule ligands for 30 minutes at room temperature which generated affinity resins for the kinase assays. The liganded beads were blocked with excess biotin and washed with blocking buffer (SeaBlock (Pierce), 1% BSA, 0.05% Tween 20, 1 mM DTT) to remove unbound ligand and to reduce non-specific phage binding. […] Test compounds were prepared as 40× stocks in 100% DMSO and diluted directly into the assay (Final DMSO concentration=2.5%). All reactions were performed in polypropylene 384-well plates in a final volume of 0.04 ml. […] The beads were then re-suspended in elution buffer (1×PBS, 0.05% Tween 20, 0.5 μM non-biotinylated affinity ligand) and incubated at room temperature with shaking for 30 minutes. The kinase concentration in the eluates was measured by quantitative PCR. An illustration of the kinase interaction process is presented below. Kd/IC50 values were determined using a standard dose response curve using the hill equation. Curves were fitted using a non-linear least square fit with the Levenberg-Marquardt algorithm.
(§2) The compound(s) were screened at 10 μM and results for primary screen binding interactions are reported as ‘% Ctrl’, where lower numbers indicate stronger hits in the matrix.

T3 sequence (Q99755 whole entry, the tested form may be a part): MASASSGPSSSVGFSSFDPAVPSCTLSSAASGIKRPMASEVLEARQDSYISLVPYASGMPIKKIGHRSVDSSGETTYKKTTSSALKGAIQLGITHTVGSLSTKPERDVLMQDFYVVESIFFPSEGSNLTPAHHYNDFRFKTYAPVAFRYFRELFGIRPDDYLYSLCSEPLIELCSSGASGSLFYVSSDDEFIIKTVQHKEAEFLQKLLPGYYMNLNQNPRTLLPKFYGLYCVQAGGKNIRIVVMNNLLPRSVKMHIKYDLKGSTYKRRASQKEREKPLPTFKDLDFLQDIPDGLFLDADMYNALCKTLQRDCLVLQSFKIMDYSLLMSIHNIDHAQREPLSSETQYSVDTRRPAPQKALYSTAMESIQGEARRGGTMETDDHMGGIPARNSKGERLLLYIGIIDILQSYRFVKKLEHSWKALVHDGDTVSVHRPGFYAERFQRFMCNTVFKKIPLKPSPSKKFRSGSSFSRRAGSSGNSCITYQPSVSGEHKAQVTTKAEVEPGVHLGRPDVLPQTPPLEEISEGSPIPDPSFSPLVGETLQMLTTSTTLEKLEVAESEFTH

SMILES	IC50 [nM]
COc1cc(-c2cc(=O)c3c(O)cc(O)c(C/C=C(\C)CCC=C(C)C)c3o2)ccc1O [FBL-03C]	360
COc1cc(-c2cc(=O)c3c(O)c(CC=C(C)C)c(O)cc3o2)ccc1O [FBL-03B]	> 10000
COc1cc(-c2cc(=O)c3c(O)cc(O)c(CC=C(C)C)c3o2)ccc1O [FBL-03G]	> 20000
COc1cc(-c2cc(=O)c3c(O)c(C/C=C(\C)CCC=C(C)C)c(O)cc3o2)ccc1O [FBL-03A]	> 20000
COc1ccc(-c2cc(=O)c3c(O)c(C/C=C(\C)CCC=C(C)C)c(O)cc3o2)cc1OC [FBL-03D]	> 30000

Target: T4, Aurora A (Homo sapiens, UniProt O14965)
T4 construct: made in house
T4 sequence (O14965 1-403): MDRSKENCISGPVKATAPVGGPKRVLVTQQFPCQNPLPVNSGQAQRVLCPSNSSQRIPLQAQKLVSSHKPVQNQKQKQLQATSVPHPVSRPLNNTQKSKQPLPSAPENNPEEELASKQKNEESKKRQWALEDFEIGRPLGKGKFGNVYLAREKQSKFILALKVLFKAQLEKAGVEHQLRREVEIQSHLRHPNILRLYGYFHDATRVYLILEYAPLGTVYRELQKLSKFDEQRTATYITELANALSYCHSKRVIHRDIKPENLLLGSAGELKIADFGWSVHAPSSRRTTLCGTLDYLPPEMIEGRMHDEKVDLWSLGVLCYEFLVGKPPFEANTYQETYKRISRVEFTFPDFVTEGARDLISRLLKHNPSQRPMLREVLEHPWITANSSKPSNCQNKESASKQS
Assay: Kinase competition binding assay, Aurora A
Conditions: Table 1 kinase panel
Description: as §1, §2

SMILES	IC50 [nM]
COc1cc(-c2cc(=O)c3c(O)c(CC=C(C)C)c(O)cc3o2)ccc1O [FBL-03B]	12
COc1cc(-c2cc(=O)c3c(O)cc(O)c(CC=C(C)C)c3o2)ccc1O [FBL-03G]	1090
COc1cc(-c2cc(=O)c3c(O)c(C/C=C(\C)CCC=C(C)C)c(O)cc3o2)ccc1O [FBL-03A]	730
COc1ccc(-c2cc(=O)c3c(O)c(C/C=C(\C)CCC=C(C)C)c(O)cc3o2)cc1OC [FBL-03D]	> 30000

Target: T5, c-Kit(D820Y) (Homo sapiens, UniProt P10721, D820Y)
T5 construct: made in house
Assay: Kinase competition binding assay, c-Kit(D820Y)
Conditions: Table 1 kinase panel
Description: as §1, §2

T5 sequence (P10721 26-976 D820Y): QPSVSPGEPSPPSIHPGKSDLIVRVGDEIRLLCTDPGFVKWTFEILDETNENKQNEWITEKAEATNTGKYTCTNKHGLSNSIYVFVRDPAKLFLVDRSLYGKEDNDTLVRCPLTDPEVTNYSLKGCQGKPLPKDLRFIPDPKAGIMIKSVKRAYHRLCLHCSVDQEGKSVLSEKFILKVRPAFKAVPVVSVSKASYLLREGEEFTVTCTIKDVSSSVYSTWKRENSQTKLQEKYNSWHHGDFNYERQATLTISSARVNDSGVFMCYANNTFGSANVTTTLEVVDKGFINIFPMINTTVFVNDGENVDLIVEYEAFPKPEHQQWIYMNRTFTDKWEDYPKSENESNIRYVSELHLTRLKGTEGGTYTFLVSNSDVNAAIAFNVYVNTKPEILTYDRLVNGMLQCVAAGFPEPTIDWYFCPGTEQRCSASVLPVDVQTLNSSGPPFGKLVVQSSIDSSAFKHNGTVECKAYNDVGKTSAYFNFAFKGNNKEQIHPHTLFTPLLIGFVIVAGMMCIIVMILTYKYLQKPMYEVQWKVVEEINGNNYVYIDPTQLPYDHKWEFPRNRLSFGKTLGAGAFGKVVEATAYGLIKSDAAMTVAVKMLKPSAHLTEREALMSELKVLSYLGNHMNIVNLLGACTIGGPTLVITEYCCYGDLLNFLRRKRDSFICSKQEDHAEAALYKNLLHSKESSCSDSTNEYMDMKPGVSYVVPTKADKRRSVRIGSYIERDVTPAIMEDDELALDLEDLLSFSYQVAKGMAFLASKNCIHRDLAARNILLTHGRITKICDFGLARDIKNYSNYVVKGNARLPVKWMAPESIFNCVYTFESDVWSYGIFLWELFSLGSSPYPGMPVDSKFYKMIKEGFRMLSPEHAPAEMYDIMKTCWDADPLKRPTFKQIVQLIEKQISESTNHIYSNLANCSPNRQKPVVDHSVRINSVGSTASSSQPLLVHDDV

SMILES	IC50 [nM]
COc1cc(-c2cc(=O)c3c(O)cc(O)c(C/C=C(\C)CCC=C(C)C)c3o2)ccc1O [FBL-03C]	> 20000
COc1cc(-c2cc(=O)c3c(O)c(CC=C(C)C)c(O)cc3o2)ccc1O [FBL-03B]	1280
COc1cc(-c2cc(=O)c3c(O)cc(O)c(CC=C(C)C)c3o2)ccc1O [FBL-03G]	113
COc1cc(-c2cc(=O)c3c(O)c(C/C=C(\C)CCC=C(C)C)c(O)cc3o2)ccc1O [FBL-03A]	> 20000
COc1ccc(-c2cc(=O)c3c(O)c(C/C=C(\C)CCC=C(C)C)c(O)cc3o2)cc1OC [FBL-03D]	> 30000

Tested on: CFPAC-1 (Pancreatic)
Assay: WST-1 anticancer cell proliferation assay, CFPAC-1
Type: cell-based, human
Conditions: 72 hours
Description: Bioactivity of the above-described compounds has been verified by an anticancer cell proliferation assay using the WST-1 (4-[3-(4-iodophenyl)-2-(4-nitrophenyl)-2H-5-tetrazolio]-1, 3-benzene disulfonate) colorimetric assay by Roche Life Sciences®. Anticancer activity was tested against several standard cancer cell lines including brain, breast, Kaposi sarcoma, leukemia, lung, melanoma, tenosynovial giant cell tumor, ovarian, pancreatic, colon and prostate cancer. Cells were trypsinized and plated into 96 well plates in 50 μl of media and incubated overnight. The next day approximately 18 hours after plating, 50 μl of media containing the required flavonoid-based pharmaceutical composition was added per well. Cells were plated at a density so that 72 hours post drug addition, the cells will be in log phase (500)-2000 cells/well). The compounds and extracts were solubilized in Dimethyl sulfoxide (DMSO). The cells are allowed to proliferate for 72 hours 37° C. in humidified atmosphere of 5% CO2. The experiment is terminated using WST-1 (Roche®) 10 μl per well and absorbance is read at 450 nm %690 nm. The effect of drugs on growth is assessed as percent of cell viability. The IC50 values were determined from the extract dose versus control growth curves using Graphpad Prism® software. All experiments were carried out in duplicate and the mean results determined.

SMILES	IC50 [µM]
COc1cc(-c2cc(=O)c3c(O)cc(O)c(C/C=C(\C)CCC=C(C)C)c3o2)ccc1O [FBL-03C]	12
COc1cc(-c2cc(=O)c3c(O)c(CC=C(C)C)c(O)cc3o2)ccc1O [FBL-03B]	17
COc1cc(-c2cc(=O)c3c(O)cc(O)c(CC=C(C)C)c3o2)ccc1O [FBL-03G]	14.3
COc1cc(-c2cc(=O)c3c(O)c(C/C=C(\C)CCC=C(C)C)c(O)cc3o2)ccc1O [FBL-03A]	12
